Converted amounts (≈) assume the structure as drawn. Ends that are not written are not given here. Peptide text beside a SMILES is read from it. * marks the point of attachment. Acm = CC(=O)NC*
Tests used:
Assay type in all cases: cell-based
human red blood cells = assay: Hemolytic assay; design: % Hemolysis: dose or concentration left out as unconfirmed; settings: for EC 50 (toxicity, hemolysis): red cells of human
Experimental: The hemolytic activities of the peptides were determined using fresh human red blood cells. 8 ml blood was taken from a healthy person. 4 ml blood was transferred to a polycarbonate tube containing heparin to a final concentration of 10 U/ml, and the remaining 4 ml blood was transferred to a glass tube containing EDTA with final concentration of 15% EDTA. The erythrocytes were isolated from heparin-treated blood by centrifugation in 1500 rpm for 10 min and washed three times with phosphate-buffered saline (PBS) to remove plasma and buffy coat. The cell pellet was resuspended in PBS to make the final volume of 4 ml. The peptide was diluted to a concentration of 2 mg/ml and 0.1 mg/ml. The peptide was further diluted to the concentrations as stated in Table 1. For each tube PBS was added first, then RBCs and peptide solutions. The hematocrit in the blood treated with EDTA was determined after 30 min with Sysmex K-1000, and the resuspended RBCs were diluted into 10% hematocrit. RBCs in PBS (1%) with and without peptides (Table 18) were incubated in a shaker at 37° for 1 hour and then centrifuged at 4000 rpm for 5 min. The supernatant were carefully transferred to new polycarbonate tubes and the absorbance of the supernatant was measured at 540 nm. Baseline hemolysis was hemoglobin released in the presence of PBS, and 100% hemolysis was hemoglobin released in the presence of 0.1% Triton X-100.

[1] = tested on: Escherichia coli ATCC 25922; assay: MIC (minimum inhibitory concentration) test, microdilution
Experimental: (§1) The bacterial strains used were: Escherichia coli ATCC 25922 and Staphylococcus aureus ATCC 25923. All strains were stored at −70° C. The bacteria were grown in 2% Bacto Peptone water (Difco 1807-17-4). All tests were performed with bacteria in mid-logarithmic growth phase. Determination of the minimum inhibitory concentration (MIC) of the peptides for bacterial strains were performed in 1% Bacto Peptone water. A standard microdilution technique with an inoculum of 2×10^6 CFU/ml was used. All assays were performed in triplets. Since the peptides are positively charged and therefore could adhere to the plastic wells, we controlled the actual concentration of the peptides in the solution by HPLC. There was no difference between the concentration of the peptides before or after adding the solution to the plastic wells.

[2] = tested on: Staphylococcus aureus ATCC 25923; assay: as above
Experimental: as §1

Compound: CSCC[C@@H](NC(=O)[C@@H](CCCNC(=N)N)NC(=O)[C@@H](Cc1c[nH]c2ccccc12)NC(=O)[C@@H](CCC(N)=O)NC(=O)[C@@H](Cc1c[nH]c2ccccc12)NC(=O)[C@@H](CCCNC(=N)N)NC(=O)[C@@H](CCCNC(=N)N)NC(=O)[C@@H](CSCNC(C)=O)NC(=O)[C@@H](CCCCN)NC(=O)[C@H](N)Cc1ccccc1)C(=O)N[C@H](CCCCN)C(=O)N[C@H](CCCCN)C(=O)N[C@H](CC(C)C)C(=O)NCC(=O)N[C@H](C)C(=O)O [Enantio LFB 17-31]
- % Hemolysis (human red blood cells): 3.05%

Compound: CSCC[C@H](NC(=O)[C@H](CCCCN)NC(=O)[C@H](CCCCN)NC(=O)[C@H](CC(C)C)NC(=O)CNC(=O)[C@H](C)N)C(=O)N[C@@H](CCCNC(=N)N)C(=O)N[C@@H](Cc1c[nH]c2ccccc12)C(=O)N[C@@H](CCC(N)=O)C(=O)N[C@@H](Cc1c[nH]c2ccccc12)C(=O)N[C@@H](CCCNC(=N)N)C(=O)N[C@@H](CCCNC(=N)N)C(=O)N[C@@H](CSCNC(C)=O)C(=O)N[C@@H](CCCCN)C(=O)N[C@@H](Cc1ccccc1)C(=O)O [Retro LFB 17-31]
- % Hemolysis (human red blood cells): 2.01%

Compound: CSCC[C@@H](NC(=O)[C@@H](CCCCN)NC(=O)[C@@H](CCCCN)NC(=O)[C@@H](CC(C)C)NC(=O)CNC(=O)[C@@H](C)N)C(=O)N[C@H](CCCNC(=N)N)C(=O)N[C@H](Cc1c[nH]c2ccccc12)C(=O)N[C@H](CCC(N)=O)C(=O)N[C@H](Cc1c[nH]c2ccccc12)C(=O)N[C@H](CCCNC(=N)N)C(=O)N[C@H](CCCNC(=N)N)C(=O)N[C@H](CSCNC(C)=O)C(=O)N[C@H](CCCCN)C(=O)N[C@H](Cc1ccccc1)C(=O)O [Retro-Enantio LFB 17-31]
- % Hemolysis (human red blood cells): 3.31%

Compound: PAWRKARRWARRMKKLAA-OH [LFB 14-31 A2,6,10,17R4,11]
- EC 50 (toxicity, hemolysis) (human red blood cells): >1000 µg/mL

Compound: CSCC[C@H](NC(=O)[C@H](CCCNC(=N)N)NC(=O)[C@H](Cc1c[nH]c2ccccc12)NC(=O)[C@H](CCC(N)=O)NC(=O)[C@H](Cc1c[nH]c2ccccc12)NC(=O)[C@H](CCCNC(=N)N)NC(=O)[C@H](Cc1ccccc1)NC(=O)[C@H](CSCNC(C)=O)NC(=O)[C@H](CCCCN)NC(=O)[C@@H](N)Cc1ccccc1)C(=O)N[C@@H](CCCCN)C(=O)N[C@@H](CCCCN)C(=O)N[C@@H](CC(C)C)C(=O)NCC(=O)N[C@@H](C)C(=O)O [LFB F4] (H-FKC(Acm)FRWQWRMKKLGA-OH; N-terminus and C-terminus assumed)
- MIC E. coli ([1]; ATCC 25922): 20 µg/mL (≈ 9.73 µM)
- Minimum inhibitory concentration (MIC) E. coli ATCC 25922 ([1]; Table 1, value in parentheses): 10 µM
- MIC S. aureus ([2]; ATCC 25923): 200 µg/mL (≈ 97.3 µM)
- Minimum inhibitory concentration (MIC) S. aureus ATCC 25923 ([2]; Table 1, value in parentheses): 100 µM

Compound: GIGKFLKKARKWGRAWVRILKKG [Tosmag W12,16]
- MIC E. coli ([1]; ATCC 25922): 5 µg/mL
- MIC S. aureus ([2]; ATCC 25923): 10 µg/mL

Compound: CC[C@H](C)[C@H](NC(=O)[C@H](CO)NC(=O)[C@@H]1CCCN1C(=O)[C@H](C)NC(=O)CNC(=O)[C@H](CC(C)C)NC(=O)[C@H](CCCCN)NC(=O)[C@H](CCCNC(=N)N)NC(=O)[C@H](CCSC)NC(=O)[C@H](CCCNC(=N)N)NC(=O)[C@H](CCCNC(=N)N)NC(=O)[C@H](CCC(N)=O)NC(=O)[C@H](Cc1c[nH]c2ccccc12)NC(=O)[C@H](CCC(N)=O)NC(=O)[C@H](Cc1ccc(O)cc1)NC(=O)[C@H](CSCNC(C)=O)NC(=O)[C@H](CCCCN)NC(=O)[C@@H](N)CO)C(=O)N[C@H](C(=O)N[C@@H](CSCNC(C)=O)C(=O)N[C@H](C(=O)N[C@@H](CCCNC(=N)N)C(=O)N[C@@H](CCCNC(=N)N)C(=O)N[C@H](C(=O)N[C@@H](CO)C(=O)O)[C@@H](C)O)C(C)C)[C@@H](C)O [LFC (17-41)] (H-SKC(Acm)YQWQRRMRKLGAPSITC(Acm)VRRTS-OH)
- Minimum inhibitory concentration (MIC) E. coli ATCC 25922 ([1]; ATCC 25922): 750 µg/mL
- Minimum inhibitory concentration (MIC) S. aureus ATCC 25923 ([2]; ATCC 25923): 1000 µg/mL

Compound: PAIRKAFRWAWRMLKKAA [LFB 14-31A2,6,10,17F7I3K16L14R4]
- Mic E-coli ([1]; Table 19): 2/4
- Mic S. Aureus ([2]; Table 19): 2/4

Compound: FKARRWAWRMKKLGA-OH [LFB A3, 7]
- EC 50 (toxicity, hemolysis) (human red blood cells): >1000 µg/mL

Compound: GIGKFWHWAKKFGKAFVGEIMNS [Mag 2 W 6,8]
- MIC E. coli ([1]; ATCC 25922): >100 µg/mL
- MIC S. aureus ([2]; ATCC 25923): >100 µg/mL

Compound: RRWQWRMKKLGA-OH [LFB 20-31]
- MIC E. coli ([1]; ATCC 25922): 100 µg/mL
- Minimum inhibitory concentration (MIC) E. coli ATCC 25922 ([1]; Table 1, value in parentheses): 62 µM
- MIC S. aureus ([2]; ATCC 25923): 200 µg/mL
- Minimum inhibitory concentration (MIC) S. aureus ATCC 25923 ([2]; Table 1, value in parentheses): 124 µM
